Values quoted from earlier work, collected in patent US20260374745A1, “METHODS FOR PRODUCING AROMATIC THIAZINES OR SELENAZINES” (Universität Heidelberg, priority 2023, published 2026).

What was measured:
[1] = tested on: 3-deoxy-d-manno-octulosonic acid 8-phosphate (KDO 8-P) synthase; details: role: inhibitor; Birck et al., J. Am. Chem. Soc. 2000, 122, 9334-9335
HIV = details: Mizuhara et al., Org. Biomol. Chem. 2012, 10, 6792-6802

**Q.** Which “3-deoxy-d-manno-octulosonic acid 8-phosphate (KDO 8-P) synthase inhibitor” value [1] does the source give for N=C1Sc2ccccc2C2=NCCCN12 [PD 404182] here?
**A.** inhibitor

**Q.** What about the anti-HIV activities (HIV) of the same compound?
**A.** potent
